Assay [1] in a line: Affinity for immobilized heparin (NaCl elution from heparin column). It is filed as binding. Conditions: TSK-heparin column. As for the experimental part:
Cells from 1 liter cultures are harvested by centrifugation, resuspended in 30 ml of 50 mM Tris-HCl, pH 7.5 containing 0.1 mM EDTA and 0.6M NaCl, and disrupted by treatment with lysozyme (10 μg/ml) for 20 min at 4° C. followed by sonication (6×30 sec pulses). The lysates are clarified by centrifugation (10,000×g; 20 min) and the supernatant solutions incubated with 5 ml of hydrated heparin Sepharose (Pharmacia/LKB) at 4° C. for 1 hour with constant rotation. The resin is isolated by filtration on 0.8 μm filter apparatus (Nalgene), washed extensively with 10 mM Tris-HCl pH 7.4 containing 0.6M NaCl and bound protein eluted with Tris buffer containing 3M NaCl (25 ml). The 3M NaCl eluent is diluted 6-fold with Tris buffer and loaded onto a TSK heparin 5PW column (0.21×15 cm; The Nest Group, MA) and the column developed using a linear NaCl gradient (0.6 to 2M) in 90 min at a flow rate of […].
NaCl elution from heparin-Sepharose® is about 0.7M NaCl, compared with 1.4M NaCl for the wild-type protein. The molarity of NaCl required to elute the LK mutant is similar to that required to elute FGF-7.

Assay [2] relates to FGF receptor on BHK cells. Description: Competition for 125I-FGF-2 binding to baby hamster kidney (BHK) cells. The settings on record: 50 pM 125I-FGF-2; compared with FGF-2. The method, then:
FGF-2LI and FGF-2LA are tested for their capacity to compete for the binding of ^125 I-FGF-2 (Amersham Corp.) to baby hamster kidney (BHK) cells, which express high numbers of FGF receptor. The assay employed is described by Moscatelli (J. Cell. Physiol. 131: 123-130 (1987)). Briefly stated, BHK cells plated on 24-well plates are incubated with 50 pM ^125 I-FGF-2 with serial dilutions of unlabelled FGF-2, FGF-2LI or FGF-2LA loop mutants at room temperature for 1 hour or at 4° C. for 2 hours. The cells are then incubated at 4° C. for 30 minutes, washed twice with phosphate-buffered saline and treated with 20 mM HEPES (N-2-hydroxyethyl-piperazine-N'-2-ethanesulfonic acid), pH 7.5, containing 2M NaCl to remove ^125 I-FGF-2 bound to low affinity heparin sulfate binding sites. Receptor bound ^125 I-FGF-2 is recovered by treatment of the cells with 0.5% Triton X-100 in 0.1M sodium phosphate, pH 8, and counted in a γ-counter. Assays are conducted in duplicate.

Assay [3] has as its system ABAE cells. The assay is described as follows: In vitro angiogenesis: capillary-like tube formation by ABAE cells on collagen gel. It is filed as cell-based, bovine. Conditions: ABAE cells on type I collagen gel, 48 hours; compared with wild-type FGF-2. The method, then:
In vitro anglogenesis evaluations are made by observing whether the mutants induce capillary-like structures in ABAE cells cultured on a 3-dimensionalcollagen gel. Three-dimensional collagen gel plates (24-well) are prepared by adding 0.5 ml chilled solution of 0.7 mg/ml rat-tail type I collagen (Becton Dickinson Labwares, Bedford, Mass.) containing DMEM and adjusting to neutral pH with NaHCO3 to each well. After formation of collagen gel (about 1-2 mm thickness), ABAE cells are seeded at 50,000 cells/well. The cultures are maintained at 37° C. in DMEM containing 10% calf serum (Hyclone, Logan, Utah) supplemented with penicillin (100 units/ml), streptomycin (100 μg/ml) and L-glutamine (2 mM) until the cultures reach confluency, usually in 5 days by which time the cells form a monolayer on the gel. The medium is then replaced with fresh medium containing different concentrations of FGF-2 or mutants. […]
The abundance of the capillary-like structures formed by ABAE cells is analyzed by using a Kontron IBAS Image Analyzer assisted with a Hamamatsu C2400 video camera and a Zeiss Axioshop microscope. […] The extent of in vitro angiogenesis is then measured as a percentage of the white areas. […] Three to four areas of each well are examined by image analysis and the mean value and standard deviation are determined. […]

The test system of assay [4] is FGFR2(IIIb) (FGF-7 or KGF receptor). The assay is described as follows: Competition binding to soluble FGFR2(IIIb) (displacement of 125I-FGF-7). Also on record: species or system murine. The method, then: Binding of FGF proteins to different FGF receptors are determined in this example, by measuring the degree of competition for binding to different types of FGF-receptor proteins between a radioiodinated FGF protein and various unlabelled proteins, or by the direct binding of radioiodinated FGF's to various receptor proteins. Binding studies are confirmed by chemical cross-linking of the radioiodinated FGF to soluble receptors in the presence and absence of excess unlabelled FGF.
Soluble FGF receptor proteins are constructed by cloning of the extracellular region of murine FGF receptor 1 (FGFR-1; flg), FGF receptor 2 (FGFR-2; bek) or the KGF receptor (FGFR(IIIb); K-sam) into the alkaline phosphatase-tag expression vector, which encodes for a secreted form of placental alkaline phosphatase (AP). The FGF receptor alkaline phosphatase (FRAP) plasmids are cotransfected into NIH 3T3 cells by electroporation with a selectable neomycin resistance gene. Clonies are selected in G418 (600 μg/ml) and screened for secreted AP enzyme activity in the conditioned medium. Clones of each receptor which produced a high level of AP activity (2 to 4 A405 units/min/ml) are then used to produce conditioned medium for binding assays.
Components of the soluble receptor binding reaction mixture include FRAP-conditioned medium (0.24 OD units/min), 2 ng/ml^125 I-FGFs and 200 ng/ml heparin. The FGF:heparin:FRAP terniary complex is immunoprecipitated with 20 μl of a 1:1 slurry of anti-AP monoclonal antibodies coupled to protein A Sepharose®. All components are mixed at room temperature. The total volume is adjusted to 200 μl by addition of DMEM containing 0.1% bovine serum albumin. Binding is allowed to proceed for 1 to 2 hours at 24° C., after which time bound receptor complex or the ligand is recovered by centrifugation at 4° C. (10 s at 2,000×g). The pelleted material is washed twice with 500 μl of an ice cold buffer containing HEPES (20 mM), NaCl (150 mM), glycerol (10%) and Triton® X-100 (1%). ^125 I-FGF binding is quantitated by counting of the samples in a gamma counter (LKB). Alternatively, AP enzyme activity of the FRAP protein is determined by transferring the FRAP receptor bound to […] to a flat-bottom microtiter plate in a volume of 50 μl of PBS. The reaction is initiated by addition of substrate (50 μl of 2× solution of AP assay buffer containing 2M diethanoiamine, 1 mM MgCl2, 20 mM homoarginine and 12 mM p-nitrophenyl phosphate). The reaction is followed at room temperature at 405 nm in a kinetic microplate reader.
A general note: In a radioligand displacement assay an active substance lowers the binding of a labelled ligand.

The test system of assay [5] is FGF receptor type 1 (FGFR1). Description: Competition binding to FGF-receptor type 1 on NIH 3T3 cells. The settings on record: compared with FGF-2.

We go through two substances from patent publication US5491220A, “Surface loop structural analogues of fibroblast growth factors” (Yeda Research and Development Co., Ltd., priority 1994, dated 1996).

As to “FGF-2LA: human FGF-2 with loop residues 118-122 replaced by Lys-Lys-His-Ala-Glu-Lys-His from bovine FGF-1 (SEQ ID NO 16) (KKHAEKH; printed: Lys-Lys-His-Ala-Glu-Lys-His)”, in assay [1], the “NaCl concentration at elution from TSK-heparin column” value was “about 1.5 M”. Moreover, the “Capacity to compete with 125I-FGF-2 binding to FGF receptors on BHK cells” value in assay [2] is on record as “similar”. For the same substance, the “Induction of tube formation (capillary-like structures)” value in assay [3] is recorded as “comparable with the wildtype”. Further, in assay [4], the “Binding to FGFR2(IIIb), times less than that of FGF-7 or FGF-1” value is “about 5 times”. The “Competition binding curve to FGF receptor type 1 on NIH 3T3 cells” value in assay [5] is listed as “identical to that for FGF-2”.

On to “FGF-2LI: human FGF-2 with loop residues 118-122 replaced by Ala-Gln-Phe-Pro-Asn from human interleukin-1β (SEQ ID NO 15)”, for which the “NaCl concentration at elution from TSK-heparin column” value in assay [1] is “about 1.5 M”. In addition, the “Capacity to compete with 125I-FGF-2 binding to FGF receptors on BHK cells” value in assay [2] is listed as “similar”. Also, the “Induction of tube formation (capillary-like structures)” value in assay [3] is recorded as “much less than that by wild-type FGF-2”. For the same substance, the “Binding to soluble FGFR2(IIIb) (competition with 125I-FGF-7)” value in assay [4] (200 ng/ml heparin) is “do not bind”. The “Competition binding curve to FGF receptor type 1 on NIH 3T3 cells” value in assay [5] was “identical to that for FGF-2”.
